The record followed here is patent US7625875B2 (priority 2002, dated 2009).

Where “and” joins values, the source holds several entries; their conditions need not be identical. Equal entries are not always repeated. Where two headings read alike, the source gives them in different places.

In one series the test system is CVB-3. The class given is cell-based, Coxsackievirus B-3.
For a further series, the system named is DENV 2. Nature of the series: microbe, parasite or virus in culture. Format: cell-based, dengue virus. The conditions noted are these: read-out: DENV 2.
The next series relates to CVB-2. Nature of the series: organism not typed. Format: cell-based, Coxsackie B-2 virus.
The next series has as its system YFV. Format: cell-based, yellow fever virus. The conditions noted are these: Tables 30b, 30k-30o.
The next series relates to WNV. Nature of the series: microbe, parasite or virus in culture. The class given is cell-based, West Nile virus. The conditions noted are these: read-out: WNV.
For series [1], the system named is MT-4 human T-lymphocyte cells.
The subject of another series is REO-1. Nature of the series: microbe, parasite or virus in culture. Format: cell-based, double-stranded RNA Reovirus.
Series [2] has as its system Vero 76, African green monkey kidney cells.
The subject of the next series is BVDV. Format: cell-based, bovine viral diarrhea virus.
The test system of a further series is CVB-4. Format: cell-based, Coxsackievirus B-4.
The subject of a further series is CVA-9. The class given is cell-based, Coxsackievirus A-9.
In a further series the test system is Sb-1. In words: organism not typed. The class given is cell-based, Sabin type 1 poliomyelitis virus.
The test system of series [3] is HepG2 cells. In words: Incorporation of drug into cellular RNA and DNA. The conditions noted are these: 10 μM [3H] drug, 30 hours.
For series [4], the system named is HepG2 cells. Nature of the series: Mitochondrial DNA content. The class given is cell-based, human. The conditions noted are these: for mtDNA/nuclear DNA (% of Control): 1 μM. On the procedure: To assess the potential of mCyd to produce mitochondrial toxicity, several in vitro studies were conducted using the human hepatoma cell lines HepG2 or Huh7.
The significance of this finding is unclear, particularly since mCyd is unlikely to attain a plasma concentration of 50 μM in the clinic. For comparison, lactic acid production increases by 100% over control cells in cells treated with 10 μM FIAU (Cui L, Yoon, et al. J. Clin. Invest. 1995; 95:555-563).

Series [5] has as its system HepG2 cells. In words: Transmission electron microscopy of mitochondrial ultrastructure. The conditions noted are these: 10 μM, 14 days.

As to `C[C@]1(CO)O[C@@H](n2ccc(=S)[nH]c2=O)[C@H](O)[C@@H]1O`, the melting point was 65 to 70 °C (dec.).

For `Cc1cn([C@@H]2O[C@](C)(CO)[C@@H](O)[C@H]2O)c(=O)[nH]c1=O`, the melting point was 258 to 260 °C (dec.).

Turning to `C[C@]1(CO)O[C@@H](n2cnc3c(N)ncnc32)[C@H](O)[C@@H]1O`, the melting point is 96 to 97 °C (dec.).

In the case of `C[C@@]1(O)[C@H](O)[C@@H](CO)O[C@H]1n1cnc2c(N)ncnc21` [Compound A, β-D-2′-C-methyl-adenosine], the EC50 in the series with CVB-3 is 14 µM; in the series on DENV 2, 2.7 µM; in the series on CVB-2 (read-out: CVB-2), 7 µM; in the series on CVB-2 (read-out: EC50 CVB-2), 10 µM; in the series with YFV, 2.7 µM; in the series with WNV, 3.6 µM. Also, the EC50 with REO-1 (read-out: EC50 REO-1) was greater than 70 µM; with REO-1 (read-out: REO), greater than 70 µM; in the series with BVDV it was 1.2 µM; with CVB-4, 13 µM; in the series with CVA-9, 12 µM. Also, the CC50 worked out at 70 µM in the series on BHK, 4 µM in series [1] and 80 µM in [2].

Regarding `C[C@@]1(O)[C@H](O)[C@@H](CO)O[C@H]1n1cnc2c(N)nc(N)nc21` [Compound B, β-D-2′-C-methyl-2-amino adenosine], the EC50 in the series with CVB-3 was determined as 23 µM; with DENV 2 it was 0.7 µM; with CVB-2 (read-out: CVB-2) it was 76 µM; with CVB-2 (read-out: EC50 CVB-2) it was 75 µM; in the series on YFV, 0.8 µM; in the series with WNV, 0.3 µM. Moreover, the EC50 turned out to be 90 µM in the series on Sb-1 (read-out: EC50 Sb-1); 90 µM with Sb-1 (read-out: Sb-1); 2 µM with REO-1 (read-out: EC50 REO-1); 2 µM with REO-1 (read-out: REO); 2.1 µM in the series with BVDV; 32 µM in the series with CVB-4. Also, in the series with CVA-9, the EC50 came out at 39 µM. Besides, the figures for the CC50 (in the series with BHK; in series [1]; in series [2]) were 50 µM, greater than 100 µM and greater than 100 µM, respectively.

Consider `C[C@@]1(O)[C@H](O)[C@@H](CO)O[C@H]1n1cnc2c(=O)[nH]c(N)nc21` [Compound C, β-D-2′-C-methyl-guanosine], for which the EC50 is 22 µM in the series on CVB-3; 1.4 µM with DENV 2; 29 µM with CVB-2 (read-out: CVB-2); 30 µM in the series with CVB-2 (read-out: EC50 CVB-2); 1.2 µM in the series with YFV; 0.6 µM with WNV. Moreover, the EC50 came out at 50 µM in the series on Sb-1 (read-out: Sb-1); 2 µM in the series with REO-1 (read-out: EC50 REO-1); 2 µM with REO-1 (read-out: REO); 3.5 µM in the series with BVDV; 12 µM in the series with CVB-4; 46 µM in the series with CVA-9. Further, the CC50 is 100 µM with BHK, greater than 100 µM in series [1] and greater than 100 µM in [2].

On to `C[C@@]1(O)[C@H](O)[C@@H](CO)O[C@H]1n1cnc2c(Cl)nc(N)nc21` [Compound D, β-D-2′-C-methyl-6-chloro-guanosine], for which the EC50 with CVB-3 amounted to 21 µM; with DENV 2 it was 0.7 µM; in the series with CVB-2 (read-out: CVB-2), 25 µM; in the series on CVB-2 (read-out: EC50 CVB-2), 25 µM; in the series on YFV, 1 µM; with WNV, 0.3 µM. The EC50 with Sb-1 (read-out: EC50 Sb-1) was determined as 50 µM; with Sb-1 (read-out: Sb-1) it was 50 µM; in the series with REO-1 (read-out: EC50 REO-1), 0.4 µM; with REO-1 (read-out: REO) it was 0.4 µM; in the series on BVDV, 0.7 µM; with CVB-4 it was 25 µM. The same compound yielded an EC50 in the series on CVA-9 of 37 µM. For the same compound, the CC50 in the series with BHK is 30 µM; in [1], greater than 100 µM; in series [2], greater than 100 µM.

For the compound `CC(C)[C@H](N)C(=O)OC[C@H]1O[C@@H](n2cnc3c(=O)[nH]c(N)nc32)[C@](C)(O)[C@@H]1OC(=O)[C@@H](N)C(C)C` [Compound E, 3′,5′-di-O-valinyl ester of β-D-2′-C-methyl-guanosine], the EC50 was found to be 30 µM in the series on CVB-3; 1.4 µM in the series on DENV 2; 33 µM in the series on CVB-2 (read-out: CVB-2); 33 µM with CVB-2 (read-out: EC50 CVB-2); 1 µM in the series with YFV; 1 µM in the series with WNV. In addition, the EC50 with Sb-1 (read-out: Sb-1) came to 55 µM; with REO-1 (read-out: EC50 REO-1), 2 µM; with REO-1 (read-out: REO), 2.1 µM; in the series with BVDV, 4.9 µM; with CVB-4, 35 µM; with CVA-9 it was 40 µM. In addition, the results for the CC50 (in the series with BHK; in series [1]; in series [2]) were 100 µM, greater than 100 µM and greater than 100 µM, respectively.

With `C#C[C@@]1(O)[C@H](O)[C@@H](CO)O[C@H]1n1cnc2c(N)ncnc21` [Compound H, β-D-2′-C-ethynyl-adenosine], the EC50 stood at 1 µM with CVB-3; 1.1 µM in the series with DENV 2; 1.2 µM in the series on CVB-2 (read-out: CVB-2); 1.5 µM in the series on CVB-2 (read-out: EC50 CVB-2); 2 µM in the series with YFV; 1 µM in the series on WNV. Besides, the EC50 in the series with Sb-1 (read-out: Sb-1) turned out to be 0.7 µM; with REO-1 (read-out: EC50 REO-1), 6 µM; in the series with REO-1 (read-out: REO), 6 µM; in the series with BVDV, 0.4 µM; in the series with CVB-4, 2 µM; in the series on CVA-9, 2.5 µM. Also, the results for the CC50 (in the series with BHK; in series [1]; in series [2]) were 15 µM, 4.6 µM and 60 µM, respectively.

Consider `C#C[C@@]1(O)[C@H](O)[C@@H](CO)O[C@H]1n1ccc(N)nc1=O` [Compound I, β-D-2′-C-ethynyl-cytidine], for which the EC50 in the series on CVB-3 is 33 µM; in the series on CVB-2 (read-out: EC50 CVB-2), 33 µM; with Sb-1 (read-out: EC50 Sb-1), 26 µM; with REO-1 (read-out: EC50 REO-1) it was greater than 100 µM; in the series on CVB-4 it was 24 µM; with CVA-9, 59 µM. Moreover, the CC50 in the series on BHK is greater than 100 µM; in [1], no less than 100 µM; in series [2], greater than 100 µM.

Take `Nc1nc(N)c2ncn([C@@H]3O[C@H](CO)[C@@H](O)[C@H]3O)c2n1` [Compound J, β-D-2-amino-adenosine]: the EC50 in the series on CVB-3 was 55 µM; in the series on CVB-2 (read-out: EC50 CVB-2), 53 µM; with Sb-1 (read-out: EC50 Sb-1), 40 µM; in the series on REO-1 (read-out: EC50 REO-1), greater than 100 µM; in the series on CVB-4 it was 50 µM; in the series with CVA-9, 53 µM. The results for the CC50 (with BHK; in series [1]; in series [2]) were greater than 100 µM, 50 µM and greater than 100 µM, respectively.

With `C[C@@]1(O)[C@H](O)[C@@H](CO)O[C@H]1n1cnc2c(NC3CC3)nc(N)nc21` [Compound K, β-D-2′-C-methyl-2-amino-6-cyclopropyl adenosine], the EC50 in the series on DENV 2 is 4.9 µM; in the series with CVB-2 (read-out: CVB-2), greater than 100 µM; with YFV, 10 µM; in the series with WNV, 3.5 µM; with Sb-1 (read-out: Sb-1), greater than 100 µM; with REO-1 (read-out: REO), 9.5 µM. The EC50 in the series on BVDV was determined as 18 µM. Besides, the CC50 in [1] is greater than 100 µM.

For `CC(C(=O)c1ccccc1)n1c(N)nc2c(ncn2[C@@H]2O[C@H](CO)[C@@H](O)[C@@]2(C)O)c1=O` (stereo partly drawn) [Compound L, β-D-2′-C-methyl-1-(methyl-2-oxo-2-phenylethyl)guanosine], the EC50 was 4.4 µM in the series with DENV 2; greater than 100 µM with CVB-2 (read-out: CVB-2); 6 µM in the series on YFV; 3 µM in the series on WNV; greater than 100 µM with Sb-1 (read-out: Sb-1); 12 µM in the series with REO-1 (read-out: REO). Also, the EC50 in the series on BVDV amounted to 12 µM. The CC50 in [1] was greater than 100 µM.

With `Cc1cn([C@H]2C[C@H](N=[N+]=[N-])[C@@H](CO)O2)c(=O)[nH]c1=O` [ZDV, zidovudine], in the series on HepG2 cells [3], the “Incorporated drug amount, DNA” value was 0.103 pmole/μg DNA and 0.103 ± 0.0123^a pmole/μg DNA; the “Incorporated drug amount, RNA” value is 0.0009 pmole/μg RNA and 0.0009 ± 0.0003^a pmole/μg RNA.

With `Nc1ccn([C@H]2CC[C@@H](CO)O2)c(=O)n1` [ddC, zalcitabine, reference compound], in the series on HepG2 cells [3], the “Incorporated drug amount, DNA” value was 0.0055 pmole/μg DNA and 0.0055^b pmole/μg DNA; the “Incorporated drug amount, RNA” value is 0.0013 pmole/μg RNA and 0.0013^b pmole/μg RNA. Further, the “mtDNA/nuclear DNA (% of Control)” value in the series with HepG2 cells [4] (6 day treatment) was 44.3 ± 9.3 % of Control. The “mtDNA/nuclear DNA (% of Control)” value in the series with HepG2 cells [4] (14 day treatment) is given as 19.6 ± 8.2 % of Control. For the same compound, the “reduction of mitochondrial DNA content” value in the series with HepG2 cells [4] (6 days) was found to be 56%. Besides, the “reduction of mitochondrial DNA content” value in the series with HepG2 cells [4] (14 days) stood at 80%. Besides, in the series with HepG2 cells [5], the “Electron Microscopy, Lipid Droplet Form.” value is reported as “Positive” and the “Electron Microscopy, Mito. Morphol.” value is “Loss of Cristae”.

A word on the melting point: it is the temperature of the solid-liquid transition.
